Data from patent US7259140B2, “Heparin-binding peptides and uses thereof” (Thomas Jefferson University, priority 2003, dated 2007).

Assays:
[1] = system: anti-Factor Xa Activity of the Low Molecular Weight Heparin Lovenox ®; experiment: Anti-Factor Xa assay (Stachrom Heparin kit): neutralization of Lovenox in citrate or plasma in vitro; assay type: biochemical, human; conditions: for Lovenox ® Neutralized: Lovenox 0.7 U/ml; for anti-Factor Xa activity of LMWH neutralized: 12 μg/ml, plasma; for anti-LMWH effect in citrate compared with plasma: Table 2A
Description: (§1) The ability of peptides such as (ARKKAAKA)3VLVLVLVL (SEQ ID NO:5) to neutralize the anti-Factor Xa activity of UFH and LMWH in vitro was tested using the Stachrom Heparin kit (Diagnostica Stago), a standard hematology laboratory assay used to measure the anti-Factor Xa activity of heparin. The assay was performed using the low molecular weight heparin enoxaparin sodium (Lovenox®, Aventis Pharmaceuticals, Inc.), unfractionated heparin (UFH), or the non-heparin glycosaminoglycan danaparoid sodium (Orgaran®, Organon Inc., West Orange, N.J.) in 0.32% citrate or in plasma anticoagulated with 0.32% citrate. Enoxaparin is commonly used clinically as a low molecular weight heparin (LMWH). Danaparoid is commonly used clinically as a non-heparin glycosaminoglycan anticoagulant. Currently, the only FDA approved drug to target UFH is protamine, which is not effective in vivo against LMWH or a non-heparin glycosaminoglycan such as danaparoid. Buffer and ATIII are added to form the heparin/ATIII complex, peptide is added, then Factor Xa, reporter dye substrate for Factor Xa activity, and stop solution, and the dye concentration is read at 405 nm. The absorbance of the dye increases with increasing Factor Xa activity, and thus is inversely proportional to the heparin (anti-Factor Xa activity) concentration. Peptides were tested in plasma obtained from three volunteers (A, B, and C). Platelet function inhibitors PG12 and theophylline were added to the blood immediately upon collection.
Results. […] (ARKKAAKA)3VLVLVLVL (SEQ ID NO:5) and VLVL(ARKKAAKA)3ARKKCAKA (SEQ ID NO:38) were able to neutralize about 0.4 U/ml anti-Factor Xa activity of LMWH at a concentration of 12 μg/ml, which would be an effective dose for patients. (AKKARA)6 (SEQ ID […]), (ARKKAAKA)4 (SEQ ID NO:31) and (ARKKAAKA)3ARKKCAKA […] 0.3-0.35 U/ml. In contrast, 12 μg protamine only neutralized about 0.25 U/ml of LMWH under these conditions.

[2] = system: Anti-Factor Xa Activity of the Non-Heparin Glycosaminoglycan Orgaran ®; experiment: Anti-Factor Xa assay: neutralization of Orgaran in citrate or plasma in vitro; assay type: biochemical, human
Description: as §1, with “collection. […]” for “collection.”

[3] = Hemodynamic effects in rats after administration of the LMWH Lovenox; conditions: in the presence of LMWH Lovenox
Description: Next, experiments were performed in which the animals were treated with the peptides after the administration of the LMWH Lovenox®, as would happen in the clinical situation, because binding of peptides to LMWH would be expected to reduce the effects of the peptides on hemodynamic function.

VLVL(ARKKAAKA)3ARKKCAKA (VLVLARKKAAKAARKKAAKAARKKAAKAARKKCAKA; Fragment)
rank as neutralizing agent of Lovenox [1]: most effective neutralizing agents
Lovenox ® Neutralized ([1]; 1 μg/ml Peptide, A Plasma): 0.080 ± .036 U/ml
Lovenox ® Neutralized ([1]; 1 μg/ml Peptide, B Plasma): 0.071 ± 0.056 U/ml
Lovenox ® Neutralized ([1]; 1 μg/ml Peptide, C Plasma): 0.077 ± 0.055 U/ml
Lovenox ® Neutralized ([1]; 1 μg/ml Peptide, Citrate): 0.091 ± .053 U/ml
Lovenox ® Neutralized ([1]; 6 μg/ml Peptide, A Plasma): 0.218 ± .026 U/ml
Lovenox ® Neutralized ([1]; 6 μg/ml Peptide, B Plasma): 0.233 ± 0.025 U/ml
Lovenox ® Neutralized ([1]; 6 μg/ml Peptide, C Plasma): 0.217 ± 0.154 U/ml
Lovenox ® Neutralized ([1]; 6 μg/ml Peptide, Citrate): 0.432 ± .086 U/ml
Lovenox ® Neutralized ([1]; 12 μg/ml Peptide, A Plasma): 0.365 ± .076 U/ml
Lovenox ® Neutralized ([1]; 12 μg/ml Peptide, B Plasma): 0.290 ± 0.047 U/ml
Lovenox ® Neutralized ([1]; 12 μg/ml Peptide, C Plasma): 0.380 ± 0.045 U/ml
Lovenox ® Neutralized ([1]; 12 μg/ml Peptide, Citrate): 0.484 ± .012 U/ml
anti-Factor Xa activity of LMWH neutralized [1]: about 0.4 U/ml
Lovenox ® Neutralized ([1]; 60 μg/ml Peptide, A Plasma): 0.483 ± .070 U/ml
Lovenox ® Neutralized ([1]; 60 μg/ml Peptide, B Plasma): 0.456 ± 0.029 U/ml
Lovenox ® Neutralized ([1]; 60 μg/ml Peptide, C Plasma): 0.461 ± 0.05 U/ml
Lovenox ® Neutralized ([1]; 60 μg/ml Peptide, Citrate): 0.550 ± .027 U/ml
Lovenox ® Neutralized ([1]; 120 μg/ml Peptide, A Plasma): 0.674 ± .105 U/ml
Lovenox ® Neutralized ([1]; 120 μg/ml Peptide, B Plasma): 0.515 ± 0.005 U/ml
Lovenox ® Neutralized ([1]; 120 μg/ml Peptide, C Plasma): 0.483 ± 0.044 U/ml
Lovenox ® Neutralized ([1]; 120 μg/ml Peptide, Citrate): 0.533 ± .017 U/ml
anti-LMWH effect in citrate compared with plasma [1]: greater anti-LMWH effect in citrate than in plasma
Lovenox/LMWH neutralization compared with protamine ([1]; low concentrations, in the presence of plasma): more effective than protamine

ARKKAAKAARKKAAKAARKKAAKAVLVLVL [(ARKKAAKA)3VLVLVL]
Lovenox ® Neutralized ([1]; 1 μg/ml Peptide, A Plasma): 0.070 ± .036 U/ml
Lovenox ® Neutralized ([1]; 1 μg/ml Peptide, B Plasma): 0.030 ± 0.020 U/ml
Lovenox ® Neutralized ([1]; 1 μg/ml Peptide, C Plasma): 0.005 + 0.007 U/ml
Lovenox ® Neutralized ([1]; 1 μg/ml Peptide, Citrate): 0.064 ± .046 U/ml
Lovenox ® Neutralized ([1]; 6 μg/ml Peptide, A Plasma): 0.250 ± .012 U/ml
Lovenox ® Neutralized ([1]; 6 μg/ml Peptide, B Plasma): 0.234 ± 0.032 U/ml
Lovenox ® Neutralized ([1]; 6 μg/ml Peptide, C Plasma): 0.153 ± 0.031 U/ml
Lovenox ® Neutralized ([1]; 6 μg/ml Peptide, Citrate): 0.298 ± .049 U/ml
Lovenox ® Neutralized ([1]; 12 μg/ml Peptide, A Plasma): 0.241 ± .076 U/ml
Lovenox ® Neutralized ([1]; 12 μg/ml Peptide, B Plasma): 0.247 ± 0.031 U/ml
Lovenox ® Neutralized ([1]; 12 μg/ml Peptide, C Plasma): 0.276 ± 0.033 U/ml
Lovenox ® Neutralized ([1]; 12 μg/ml Peptide, Citrate): 0.457 ± .016 U/ml
Lovenox ® Neutralized ([1]; 60 μg/ml Peptide, A Plasma): 0.453 ± .029 U/ml
Lovenox ® Neutralized ([1]; 60 μg/ml Peptide, B Plasma): 0.474 ± 0.011 U/ml
Lovenox ® Neutralized ([1]; 60 μg/ml Peptide, C Plasma): 0.491 ± 0.029 U/ml
Lovenox ® Neutralized ([1]; 60 μg/ml Peptide, Citrate): 0.479 ± .006 U/ml
Lovenox ® Neutralized ([1]; 120 μg/ml Peptide, A Plasma): 0.457 ± .010 U/ml
Lovenox ® Neutralized ([1]; 120 μg/ml Peptide, B Plasma): 0.496 ± 0.028 U/ml
Lovenox ® Neutralized ([1]; 120 μg/ml Peptide, C Plasma): 0.471 ± 0.013 U/ml
Lovenox ® Neutralized ([1]; 120 μg/ml Peptide, Citrate): 0.516 ± .065 U/ml
anti-LMWH effect in citrate compared with plasma [1]: greater anti-LMWH effect in citrate than in plasma

Protamine [reference compound]
Lovenox ® Neutralized ([1]; 1 μg/ml Peptide, A Plasma): 0.038 ± 0.036 U/ml
Lovenox ® Neutralized ([1]; 1 μg/ml Peptide, B Plasma): 0.086 ± 0.004 U/ml
Lovenox ® Neutralized ([1]; 1 μg/ml Peptide, C Plasma): 0.070 ± 0.050 U/ml
Lovenox ® Neutralized ([1]; 1 μg/ml Peptide, Citrate): 0.050 ± 0.016 U/ml
Lovenox ® Neutralized ([1]; 6 μg/ml Peptide, A Plasma): 0.177 ± 0.033 U/ml
Lovenox ® Neutralized ([1]; 6 μg/ml Peptide, B Plasma): 0.200 ± 0.026 U/ml
Lovenox ® Neutralized ([1]; 6 μg/ml Peptide, C Plasma): 0.232 ± 0.065 U/ml
Lovenox ® Neutralized ([1]; 6 μg/ml Peptide, Citrate): 0.256 ± 0.060 U/ml
Lovenox ® Neutralized ([1]; 12 μg/ml Peptide, A Plasma): 0.232 ± 0.067 U/ml
Lovenox ® Neutralized ([1]; 12 μg/ml Peptide, B Plasma): 0.249 ± 0.039 U/ml
Lovenox ® Neutralized ([1]; 12 μg/ml Peptide, C Plasma): 0.285 ± 0.041 U/ml
Lovenox ® Neutralized ([1]; 12 μg/ml Peptide, Citrate): 0.591 ± 0.032 U/ml
anti-Factor Xa activity of LMWH neutralized [1]: about 0.25 U/ml
Lovenox ® Neutralized ([1]; 60 μg/ml Peptide, A Plasma): 0.515 ± 0.066 U/ml
Lovenox ® Neutralized ([1]; 60 μg/ml Peptide, B Plasma): 0.574 ± 0.022 U/ml
Lovenox ® Neutralized ([1]; 60 μg/ml Peptide, C Plasma): 0.465 ± 0.021 U/ml
Lovenox ® Neutralized ([1]; 60 μg/ml Peptide, Citrate): 0.570 ± 0.033 U/ml
Lovenox ® Neutralized ([1]; 120 μg/ml Peptide, A Plasma): 0.562 ± 0.035 U/ml
Lovenox ® Neutralized ([1]; 120 μg/ml Peptide, B Plasma): 0.592 ± 0.037 U/ml
Lovenox ® Neutralized ([1]; 120 μg/ml Peptide, C Plasma): 0.499 ± 0.16 U/ml
Lovenox ® Neutralized ([1]; 120 μg/ml Peptide, Citrate): 0.480 ± 0.058 U/ml
anti-LMWH effect in citrate compared with plasma [1]: greater anti-LMWH effect in citrate than in plasma
Orgaran Neutralized ([2]; 1 μg/ml Peptide, A Plasma): 0.027 ± 0.004 U/ml
Orgaran Neutralized ([2]; 1 μg/ml Peptide, B Plasma): 0.021 ± 0.007 U/ml
Orgaran Neutralized ([2]; 1 μg/ml Peptide, C Plasma): 0.017 ± 0.006 U/ml
Orgaran Neutralized ([2]; 1 μg/ml Peptide, Citrate): 0.030 ± 0.015 U/ml
Orgaran Neutralized ([2]; 6 μg/ml Peptide, A Plasma): 0.050 ± 0.025 U/ml
Orgaran Neutralized ([2]; 6 μg/ml Peptide, B Plasma): 0.040 ± 0.018 U/ml
Orgaran Neutralized ([2]; 6 μg/ml Peptide, C Plasma): 0.034 ± 0.021 U/ml
Orgaran Neutralized ([2]; 6 μg/ml Peptide, Citrate): 0.093 ± 0.046 U/ml
Orgaran Neutralized ([2]; 12 μg/ml Peptide, A Plasma): 0.016 ± 0.013 U/ml
Orgaran Neutralized ([2]; 12 μg/ml Peptide, B Plasma): 0.065 ± 0.014 U/ml
Orgaran Neutralized ([2]; 12 μg/ml Peptide, C Plasma): 0.043 ± 0.018 U/ml
Orgaran Neutralized ([2]; 12 μg/ml Peptide, Citrate): 0.308 ± 0.017 U/ml
Orgaran Neutralized ([2]; 60 μg/ml Peptide, A Plasma): 0.140 ± 0.021 U/ml
Orgaran Neutralized ([2]; 60 μg/ml Peptide, B Plasma): 0.241 ± 0.032 U/ml
Orgaran Neutralized ([2]; 60 μg/ml Peptide, C Plasma): 0.234 ± 0.025 U/ml
Orgaran Neutralized ([2]; 60 μg/ml Peptide, Citrate): 0.322 ± 0.038 U/ml
Orgaran Neutralized ([2]; 120 μg/ml Peptide, A Plasma): 0.340 ± 0.021 U/ml
Orgaran Neutralized ([2]; 120 μg/ml Peptide, B Plasma): 0.364 ± 0.013 U/ml
Orgaran Neutralized ([2]; 120 μg/ml Peptide, C Plasma): 0.318 ± 0.019 U/ml
Orgaran Neutralized ([2]; 120 μg/ml Peptide, Citrate): 0.136 ± 0.034 U/ml
blood pressure drop [3]: ≥ 30 mm Hg
duration of blood pressure drop [3]: 10 min
heart rate nadir [3]: about 80 % of normal
rats with blood pressure drop out of rats tested [3]: 10 out of 15
